Reference: the NIST ThermoML archive (doi:10.1016/j.jct.2018.12.019)

Key:
[1] = 98 kPa, Liquid; for speed of sound: Frequency=3 MHz, Single path-length method; for mass density: Vibrating tube method
[2] = excess molar enthalpy (molar enthalpy of mixing); xn = mol fraction of the nth substance listed; details: 298.15 K; 98 kPa; Liquid; Calvet calorimetry; x2 = 0
[3] = xn = mol fraction of the nth substance listed; details: 98 kPa, Liquid, x2 = 0; for speed of sound: Frequency=3 MHz, Single path-length method; for mass density: Vibrating tube method

Cn1ccnc1 [1-methylimidazole]
[1]
Details	mass density [kg/m3]	speed of sound [m/s]
288.15 K	1039.36	1634.1
298.15 K	1030.52	1596.5
308.15 K	1021.66	1559
318.15 K	1012.76	1521.8
328.15 K	1003.83	1485

CCO [ethanol]
[1]
Details	mass density [kg/m3]	speed of sound [m/s]
288.15 K	793.68	1176.9
298.15 K	785.14	1142.7
308.15 K	776.48	1108.8
318.15 K	767.68	1075.2
328.15 K	758.65	1041.9

CCO [ethanol] + Cn1ccnc1
Details	excess molar enthalpy [kcal/mol]
[2]	0

[3]
Details	mass density [kg/m3]	speed of sound [m/s]
288.15 K	793.68	1176.9
298.15 K	785.14	1142.7
308.15 K	776.48	1108.8
318.15 K	767.68	1075.2
328.15 K	758.65	1041.9

CO [methanol]
[1]
Details	mass density [kg/m3]	speed of sound [m/s]
288.15 K	796.13	1135.7
298.15 K	786.75	1102.6
308.15 K	777.29	1069.8
318.15 K	767.71	1037.4
328.15 K	757.97	1005.3

CO [methanol] + Cn1ccnc1
[3]
Details	mass density [kg/m3]	speed of sound [m/s]
288.15 K	796.13	1135.7
298.15 K	786.75	1102.6
308.15 K	777.29	1069.8
318.15 K	767.71	1037.4
328.15 K	757.97	1005.3

CCCO [propan-1-ol]
[1]
Details	mass density [kg/m3]	speed of sound [m/s]
288.15 K	807.5	1239.5
298.15 K	799.53	1205.2
308.15 K	791.44	1171.1
318.15 K	783.18	1137.3
328.15 K	774.7	1103.8

CCCO [propan-1-ol] + Cn1ccnc1
Details	excess molar enthalpy [kcal/mol]
[2]	0

[3]
Details	mass density [kg/m3]	speed of sound [m/s]
288.15 K	807.5	1239.5
298.15 K	799.53	1205.2
308.15 K	791.44	1171.1
318.15 K	783.18	1137.3
328.15 K	774.7	1103.8

CC(C)O [propan-2-ol]
[1]
Details	mass density [kg/m3]	speed of sound [m/s]
288.15 K	789.18	1173.2
298.15 K	780.86	1138.4
308.15 K	772.26	1103.3
318.15 K	763.3	1067.9
328.15 K	753.91	1031.9

CC(C)O [propan-2-ol] + Cn1ccnc1
Details	excess molar enthalpy [kcal/mol]
[2]	0

[3]
Details	mass density [kg/m3]	speed of sound [m/s]
288.15 K	789.18	1173.2
298.15 K	780.86	1138.4
308.15 K	772.26	1103.3
318.15 K	763.3	1067.9
328.15 K	753.91	1031.9

O [water] + Cn1ccnc1
[3], 328.15 K
Details	mass density [kg/m3]	speed of sound [m/s]
–	985.71	1547.3
